These are literature values, as cited in patent US20240277751A1, “CRYSTALLINE POLYMORPHIC FORMS OF STING AGONISTS ASSOCIATED WITH METAL IONS CAPABLE OF MODULATING AN IMMUNE RESPONSE” (priority 2020, published 2024).

With `Nc1ncnc2c1ncn2[C@@H]1O[C@@H]2COP(=O)([S-])O[C@@H]3[C@H](O)[C@@H](COP([O-])(=S)O[C@H]2[C@H]1O)O[C@H]3n1cnc2c(N)ncnc21.[Na+].[Na+]` (some centres unmarked) [MIW815], the “fraction entered the systemic circulation” value (1 hour after intratumor injection, phase I clinical trial) was “over 98%”. Under “in vivo”, the half-life in serum is reported as around 16 min.
